Results on nine compounds are retold here after patent publication US8592460B2, “Amino-pyridine derivatives as S1P1 /EDG1 receptor agonists” (Actelion Pharmaceuticals Ltd., priority 2007, dated 2013).

By EC50 is commonly meant the concentration giving half of the maximal effect.

Sequence of recombinant human S1P1 receptor (P21453 whole entry): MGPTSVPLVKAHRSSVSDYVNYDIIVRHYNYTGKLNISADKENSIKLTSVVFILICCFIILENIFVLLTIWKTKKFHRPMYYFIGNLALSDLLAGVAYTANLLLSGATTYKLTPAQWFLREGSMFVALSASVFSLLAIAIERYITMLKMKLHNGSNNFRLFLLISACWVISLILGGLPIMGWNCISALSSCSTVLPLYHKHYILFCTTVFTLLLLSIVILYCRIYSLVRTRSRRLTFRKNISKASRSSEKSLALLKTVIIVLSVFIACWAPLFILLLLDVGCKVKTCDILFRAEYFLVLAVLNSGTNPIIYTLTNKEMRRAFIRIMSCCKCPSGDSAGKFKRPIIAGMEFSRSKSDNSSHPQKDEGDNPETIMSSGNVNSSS

One assay addresses recombinant human S1P1 receptor (Homo sapiens, UniProt P21453). Put plainly: GTPγS assay to determine EC50 values. The conditions noted are these: agonistic activity; 35S-GTPγS binding, membrane preparations of CHO cells expressing recombinant human S1P1 receptor. The class given is biochemical. On the procedure: GTPγS binding assays are performed in 96 well microtiter plates (Nunc, 442587) in a final volume of 200 μl, using membrane preparations of CHO cells expressing recombinant human S1P1 receptor. Assay conditions are 20 mM Hepes (Fluka, 54461), 100 mM NaCl (Fluka, 71378), 5 mM MgCl2(Fluka, 63064), 0.1% BSA (Calbiochem, 126609), 1 μM GDP (Sigma, G-7127), 2.5% DMSO (Fluka, 41644), […] ^35S-GTPγS (Amersham Biosciences, SJ1320). The pH is 7.4. Test compounds are dissolved and diluted in 100% DMSO and pre-incubated at room temperature for 30 min in 150 μl of the above assay buffer, in the absence of ^35S-GTPγS. After addition of 50 μl of ^35S-GTPγS, the assay is incubated for 1 h at rt. The assay is terminated by transfer of the reaction mixture to a Multiscreen plate (Millipore, MAHFC1H60) using a cell harvester from Packard Biosciences, and the plates are washed with ice-cold 10 mM Na2HPO4/NaH2PO4 (70%/30%), dried, sealed at the bottom and, after addition of 25 μl MicroScint20 (Packard Biosciences, order#6013621), sealed on the top. Membrane-bound ^35S-GTPγS is measured with a TopCount from Packard Biosciences.
EC50 is the concentration of agonist inducing 50% of the maximal specific ^35S-GTPγS binding. Specific binding is determined by subtracting non-specific binding from maximal binding. Maximal binding is the amount of cpm bound to the Multiscreen plate in the presence of 10 μM of S1P. Non-specific binding is the amount of binding in the absence of an agonist in the assay.
In general terms: GTPγS resists hydrolysis and so accumulates on activated G proteins.
Consider `CCc1cc(-c2noc(-c3cc(C)nc(NC(C)C)c3)n2)cc(C)c1OC[C@H](O)CO` [Example 198, (R)-3-{2-ethyl-4-[5-(2-isopropylamino-6-methyl-pyridin-4-yl)-[1,2,4]oxadiazol-3-yl]-6-methyl-phenoxy}-propane-1,2-diol], for which the EC50 was 2.4 nM. Take `CCc1cc(-c2noc(-c3cc(C)nc(N(CC)CC)c3)n2)cc(C)c1OCCN1CCC(C(=O)O)C1` (racemic) [Example 66, rac-1-(2-{4-[5-(2-Diethylamino-6-methyl-pyridin-4-yl)-[1,2,4]oxadiazol-3-yl]-2-ethyl-6-methyl-phenoxy}-ethyl)-pyrrolidine-3-carboxylic acid]: the EC50 stood at 6.2 nM.

Another assay relates to circulating lymphocytes. In words: Assessment of in vivo efficacy: circulating lymphocytes after oral administration. The arrangement: species or system rat. The note with it: 6 h after oral administration of 10 mg/kg to normotensive male Wistar rats, compared to vehicle-treated group; mean ± SEM. As to the method: The efficacy of the compounds of formula (I) is assessed by measuring the circulating lymphocytes after oral administration of 3 to 30 mg/kg of a compound of formula (I) to normotensive male Wistar rats. The animals are housed in climate-controlled conditions with a 12 h-light/dark cycle, and have free access to normal rat chow and drinking water. Blood is collected before and 3, 6 and 24 h after drug administration. Full blood is subjected to hematology using Advia Hematology system (Bayer Diagnostics, Zurich, Switzerland).
All data are presented as mean±SEM. Statistical analyses are performed by analysis of variance (ANOVA) using Statistica (StatSoft) and the Student-Newman-Keuls procedure for multiple comparisons. The null hypothesis is rejected when p<0.05.
Lymphocyte counts 6 h after oral administration have been measured for 39 of the 258 exemplified compounds and are in the range of −82% to −48% with an average of −65%.
In the case of `CCN(CC)c1cc(-c2nc(-c3cc(C)c(OC[C@@H](O)CO)c(C)c3)no2)cc(C)n1` [Example 11, (S)-3-{4-[5-(2-diethylamino-6-methyl-pyridin-4-yl)-[1,2,4]oxadiazol-3-yl]-2,6-dimethyl-phenoxy}-propane-1,2-diol], the Lymphocyte counts was −70 ± 2%. Same read-out and setting: with `CCc1cc(-c2noc(-c3cc(C)nc(NC(C)C)c3)n2)cc(C)c1OC[C@@H](O)CO` [Example 199, (S)-3-{2-ethyl-4-[5-(2-isopropylamino-6-methyl-pyridin-4-yl)-[1,2,4]oxadiazol-3-yl]-6-methyl-phenoxy}-propane-1,2-diol] the figure was −72 ± 3%; with `CCc1cc(-c2noc(-c3cc(C)nc(N(C)C(C)C)c3)n2)cc(C)c1OC[C@@H](O)CO` [Example 24, (S)-3-(2-Ethyl-4-{5-[2-(isopropyl-methyl-amino)-6-methyl-pyridin-4-yl]-[1,2,4]oxa-diazol-3-yl}-6-methyl-phenoxy)-propane-1,2-diol], −72 ± 1%; with `COc1cc(-c2noc(-c3cc(C)nc(N(C)C(C)C)c3)n2)cc(Cl)c1OC[C@@H](O)CO` [Example 149, (S)-3-(2-chloro-4-{5-[2-(isopropyl-methyl-amino)-6-methyl-pyridin-4-yl]-[1,2,4]oxadiazol-3-yl}-6-methoxy-phenoxy)-propane-1,2-diol], −82 ± 2%.

For the compound `CCc1cc(-c2noc(-c3cc(C)nc(N4CCCC4)c3)n2)cc(C)c1OC[C@@H](O)CNC(=O)CO` [Example 188, N—((S)-3-{2-ethyl-6-methyl-4-[5-(2-methyl-6-pyrrolidin-1-yl-pyridin-4-yl)-[1,2,4]oxadiazol-3-yl]-phenoxy}-2-hydroxy-propyl)-2-hydroxy-acetamide], the Lymphocyte counts is listed as −76 ± 1%. On the same count and under the same terms, next, `CCc1cc(-c2nc(-c3cc(C)nc(N(CC)CC)c3)no2)cc(C)c1OC[C@@H](O)CNC(=O)CO` [Example 80, N—((S)-3-{4-[3-(2-diethylamino-6-methyl-pyridin-4-yl)-[1,2,4]oxadiazol-5-yl]-2-ethyl-6-methyl-phenoxy}-2-hydroxy-propyl)-2-hydroxy-acetamide]: −68 ± 2%; `CCc1cc(-c2nnc(-c3cc(C)nc(N(CC)CC)c3)s2)cc(C)c1OC[C@@H](O)CNC(=O)CO` [Example 94, N—((S)-3-{4-[5-(2-diethylamino-6-methyl-pyridin-4-yl)-[1,3,4]thiadiazol-2-yl]-2-ethyl-6-methyl-phenoxy}-2-hydroxy-propyl)-2-hydroxy-acetamide]: −75 ± 6%.
